PubChem BioAssay AID588573 (Sanford-Burnham Center for Chemical Genomics, 2011)
Values belong to the molecule of their own block, whether it stands above or below them. Active and inactive are the calls of the source. How the calls were made is not given here.

Molecular target: Caspase-3 (Homo sapiens) + Caspase-9 (Homo sapiens) (UniProt P42574+P55211)
Experiment: CASP3 and CASP9 cascade activity modulators, specificity counterscreen for apoptotic protease activating factor 1 activator project, concentration-response, cell-free, fluorescence, leucine zipper CASP9, ultra-HTS actives (AID 588573)
Conditions: LZ-caspase-9/caspase-3 coupled fluorogenic activity assay

Caspase-3 (Homo sapiens) + Caspase-9 (Homo sapiens), sequence (P42574 whole entry, looked up): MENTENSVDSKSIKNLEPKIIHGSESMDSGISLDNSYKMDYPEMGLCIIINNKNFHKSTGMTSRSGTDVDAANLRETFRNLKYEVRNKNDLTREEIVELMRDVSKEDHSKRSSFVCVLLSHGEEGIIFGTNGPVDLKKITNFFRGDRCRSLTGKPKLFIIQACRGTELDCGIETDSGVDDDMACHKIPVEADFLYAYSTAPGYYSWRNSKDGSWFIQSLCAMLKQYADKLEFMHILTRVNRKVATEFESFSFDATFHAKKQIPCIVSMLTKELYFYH
Caspase-3 (Homo sapiens) + Caspase-9 (Homo sapiens), sequence (P55211 whole entry, looked up): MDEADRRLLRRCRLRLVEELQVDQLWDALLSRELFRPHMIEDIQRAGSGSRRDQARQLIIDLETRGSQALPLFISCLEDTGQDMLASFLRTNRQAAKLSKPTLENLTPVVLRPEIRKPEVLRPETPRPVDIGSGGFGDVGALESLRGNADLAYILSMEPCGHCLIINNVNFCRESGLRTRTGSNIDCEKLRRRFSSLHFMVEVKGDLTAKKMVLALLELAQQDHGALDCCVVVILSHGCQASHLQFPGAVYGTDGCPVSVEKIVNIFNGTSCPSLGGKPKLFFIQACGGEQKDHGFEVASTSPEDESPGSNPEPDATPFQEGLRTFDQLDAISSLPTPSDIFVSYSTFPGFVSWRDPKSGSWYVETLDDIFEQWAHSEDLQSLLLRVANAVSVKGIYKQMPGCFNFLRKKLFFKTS

Compound: N#C/C(=C\c1ccc(OCc2ccc(Cl)cc2)cc1)C(=O)Nc1cccc(C(=O)O)c1
IC50 (inhibition of caspase signal): 15.6 µM

Compound: O=C(Nc1nc2ccsc2c(=O)s1)c1ccco1
EC50: > 100 µM (inactive)

Compound: CC(CNc1ccccc1O)C(=O)O (centres undefined)
EC50: > 100 µM (inactive)

Compound: N#CCCn1cc(C(CC(=O)c2ccc(Br)cc2)C(=O)O)c2ccccc21 (centres undefined)
EC50: > 100 µM (inactive)

Compound: CC(/C=C\c1cccnc1)=C/C(=O)O
EC50: > 100 µM (inactive)

Compound: C=C(C)C(=O)Nc1cccc(C2=NOC3(C2)C[C@H](C(N)=O)N(C(=O)c2ccccc2C(=O)c2ccccc2)C3)c1 (some centres undefined)
EC50: > 100 µM (inactive)

Compound: C=C(C)C(=O)Nc1cccc(C2=NOC3(C2)C[C@H](C(N)=O)N(C(=O)/C=C/C)C3)c1 (some centres undefined)
EC50: > 100 µM (inactive)

Compound: CCOc1ccccc1NC(=O)CCS(=O)(=O)c1ccc(Br)cc1
EC50: > 100 µM (inactive)

Compound: C=C(C)C(=O)Nc1cccc(C2=NOC3(C2)C[C@H](C(N)=O)N(C(=O)c2ccccc2)C3)c1 (some centres undefined)
EC50: > 100 µM (inactive)

Compound: CC(C)(CS(=O)(=O)[O-])NC(=O)CC[N+](C)(C)CCO
EC50: > 100 µM (inactive)

Compound: COc1cc([N+](=O)[O-])ccc1NC(=O)COC(=O)c1ccc(NC(N)=O)cc1
EC50: > 100 µM (inactive)

Compound: COc1ccc(/C=C2\SC(=S)N(CCC(=O)Nc3ccc(C(=O)O)cc3)C2=O)cc1OC
IC50 (inhibition of caspase signal): 14.6 µM

Compound: C=C(C)C(=O)Nc1cccc(C2=NOC3(C2)C[C@@H](C(N)=O)N(C(=O)/C=C/C=C/C)C3)c1 (some centres undefined)
EC50: > 100 µM (inactive)

Compound: COC(=O)c1ccccc1-c1ccc(/C=C2\C(=O)N(c3ccccc3)N=C2c2ccccc2)o1
EC50: > 100 µM (inactive)

Compound: COc1ccc([N+](=O)[O-])cc1NC(=O)CCS(=O)(=O)c1ccc(Br)cc1
EC50: > 100 µM (inactive)

Compound: C=CC1=C(C(=O)O)N2C(=O)[C@@H](NC(=O)/C(=N/OCC(=O)O)c3csc(N)n3)[C@H]2SC1
EC50: > 100 µM (inactive)

Compound: CCOc1ccc(C(=O)/C=C/Nc2ccc(S(=O)(=O)N=C(N)N)cc2)cc1
EC50: > 100 µM (inactive)

Results, then the molecule that gave them:

EC50: > 100 µM (inactive)
Compound: C=C(C)C(=O)Nc1cccc(C2=NOC3(C2)C[C@@H](C(N)=O)N(C(=O)CCCCC)C3)c1 (some centres undefined)

EC50: > 100 µM (inactive)
Compound: C=CC1=C(C(=O)O)N2C(=O)[C@@H](NC(=O)/C(=N\OCC(=O)O)c3csc(N)n3)[C@H]2SC1

EC50: > 100 µM (inactive)
Compound: C=C(C)C(=O)Nc1cccc(C2=NOC3(C2)C[C@@H](C(N)=O)N(C(=O)C(=C)C)C3)c1 (some centres undefined)

EC50: > 100 µM (inactive)
Compound: C=C(C)C(=O)Nc1cccc(C2=NOC3(C2)C[C@@H](C(N)=O)N(C(=O)c2cc([N+](=O)[O-])cc([N+](=O)[O-])c2C)C3)c1 (some centres undefined)

EC50: > 100 µM (inactive)
Compound: O=C1C2(CCCC13COC(c1ccc(O)cc1)OC3)COC(c1ccc(O)cc1)OC2 (centres undefined)

EC50: > 100 µM (inactive)
Compound: C=C(C)C(=O)Nc1cccc(C2=NOC3(C2)C[C@@H](C(N)=O)N(C(=O)/C=C/CC)C3)c1 (some centres undefined)

EC50: > 100 µM (inactive)
Compound: Cc1cc(C)n(CC(C)C(=O)O)n1 (centres undefined)

IC50 (inhibition of caspase signal): 23.6 µM
Compound: CCc1ccc(N=C2NC(=O)/C(=C/c3cc(Br)c(OCC(=O)O)c(OC)c3)S2)cc1

EC50: > 100 µM (inactive)
Compound: O=C(CCS(=O)(=O)c1ccc(Br)cc1)NCc1ccco1

EC50: > 100 µM (inactive)
Compound: C=C(C)C(=O)Nc1cccc(C2=NOC3(C2)C[C@@H](C(N)=O)N(C(=O)/C(C)=C/C)C3)c1 (some centres undefined)

EC50: > 100 µM (inactive)
Compound: CCN(CC)CCOc1ccc2c(c1)C(=NNC(=O)c1ccccn1)c1cc(OCCN(CC)CC)ccc1-2

EC50: > 100 µM (inactive)
Compound: CC(Cc1c[nH]c2ccccc12)C(=O)O (centres undefined)
